Measured values taken from patent US9573953B2, “Heteroaromatic compounds as PI3 kinase modulators and methods of use” (CALITOR SCIENCES, LLC, priority 2013, dated 2017).

What was measured:
[1] = Pharmacokinetic profiles in rats; assay type: in vivo; settings: for F: iv dose 2 mg/kg, oral dose generally 5 or 10 mg/kg; for Cl/F / AUC(0-t) / half-life / Vd: iv dosing, 2 mg/kg; for AUC(0-t) / half-life / Vd: rat, plasma; for Vd: read-out: Vss
Experimental: (§1) The compounds disclosed herein are assessed in pharmacokinetic studies in mice, rats, dogs or monkeys. The compounds are administered as a water solution, 2% HPMC+1% TWEEN®80 in water solution, 5% DMSO+5% solutol in saline, 4% MC suspension or capsule. For the intravenous administration, the animals are generally given at 1 or 2 mg/kg dose. For the oral (p.o.) dosing, mice and rats are generally given 5 or 10 mg/kg dose, and dogs and monkeys are generally given 10 mg/kg dose. The blood samples (0.3 mL) are drawn at 0.25, 0.5, 1.0, 2.0, 3.0, 4.0, 6.0, 8.0, 12 and 24 h time points or 0.083, 0.25, 0.5, 1.0, 2.0, 4.0, 6.0, 8.0 and 24 h time points and centrifuged at 3,000 or 4000 rpm for 2 to 10 min. The plasma solutions are collected and stored at −20° C. or −70° C. until analyzed by LC/MS/MS as described above.

mTOR (h) = molecular target: T1, mTOR (h) (Homo sapiens, UniProt P42345); assay: mTOR (h) kinase assay; assay type: biochemical
T1 construct: purchased Millipore UK Ltd (assays run there as a service)
Experimental: mTOR (h) is incubated with 50 mM HEPES pH 7.5, 1 mM EDTA, 0.01% TWEEN®20, 2 mg/mL substrate, 3 mM Manganese Chloride and [γ-^33P-ATP] (specific activity approx. 500 cpm/pmol, concentration as required). The reaction is initiated by the addition of the MnATP mix. After incubation for 40 minutes at room temperature, the reaction is stopped by the addition of 3% phosphoric acid solution. Aliquote of the reaction (10 μL) is then spotted onto a P30 filtermat and washed three times for 5 minutes in 75 mM phosphoric acid and once in methanol prior to drying and scintillation counting.
(§2) The kinase assays described herein were performed at Millipore UK Ltd, Dundee Technology Park, Dundee DD2 1SW, UK.

[2] = Pharmacokinetic profiles in monkeys; assay type: in vivo; settings: Monkey; for F: iv dose 1 mg/kg, oral dose generally 10 mg/kg; for Cl/F / AUC(0-t) / half-life / Vd: iv dosing, 1 mg/kg; for AUC(0-t) / half-life / Vd: plasma; for Vd: read-out: Vss
Experimental: as §1

[3] = Pharmacokinetic profiles in mice; assay type: in vivo; settings: Mouse; for F: iv dose 1 mg/kg, oral dose generally 5 or 10 mg/kg; for clearance / AUC(0-t) / half-life / Vd: iv dosing, 1 mg/kg; for AUC(0-t) / half-life / Vd: plasma; for Vd: read-out: Vss
Experimental: as §1

[4] = Pharmacokinetic profiles in dogs; assay type: in vivo; settings: Dog; for F: iv dose 1 mg/kg, oral dose generally 10 mg/kg; for clearance / AUC(0-t) / half-life / Vd: iv dosing, 1 mg/kg; for AUC(0-t) / half-life / Vd: plasma; for Vd: read-out: Vss
Experimental: as §1

PI3K p110α/p85α (h) = molecular target: T2, PI3K p110α/p85α (h) (Homo sapiens, UniProt P42336); assay: PI3K p110α/p85α (h) non-radioactive (HTRF) assay; assay type: biochemical
T2 construct: purchased Millipore UK Ltd (assays run there as a service)
Experimental: PI3K p110α/p85α (h) [Non-Radioactive Assay]
PI3K p110α/p85α (h) is incubated in assay buffer containing 10 μM phosphatidylinositol 4,5-bisphosphate and MgATP (concentration as required). The reaction is initiated by the addition of the ATP solution. After incubation for 30 minutes at room temperature, the reaction is stopped by the addition of stop solution containing EDTA and biotinylated phosphatidylinositol-3,4,5-trisphosphate. Finally, detection buffer is added, which contains europium-labelled anti-GST monoclonal antibody, GST-tagged GRP1 PH domain and streptavidin allophycocyanin. The plate is then read in time-resolved fluorescence mode and the homogenous time-resolved fluorescence (HTRF) signal is determined according to the formula HTRF=10000×(Em665 nm/Em620 nm).
as §2

T2 sequence (P42336 whole entry): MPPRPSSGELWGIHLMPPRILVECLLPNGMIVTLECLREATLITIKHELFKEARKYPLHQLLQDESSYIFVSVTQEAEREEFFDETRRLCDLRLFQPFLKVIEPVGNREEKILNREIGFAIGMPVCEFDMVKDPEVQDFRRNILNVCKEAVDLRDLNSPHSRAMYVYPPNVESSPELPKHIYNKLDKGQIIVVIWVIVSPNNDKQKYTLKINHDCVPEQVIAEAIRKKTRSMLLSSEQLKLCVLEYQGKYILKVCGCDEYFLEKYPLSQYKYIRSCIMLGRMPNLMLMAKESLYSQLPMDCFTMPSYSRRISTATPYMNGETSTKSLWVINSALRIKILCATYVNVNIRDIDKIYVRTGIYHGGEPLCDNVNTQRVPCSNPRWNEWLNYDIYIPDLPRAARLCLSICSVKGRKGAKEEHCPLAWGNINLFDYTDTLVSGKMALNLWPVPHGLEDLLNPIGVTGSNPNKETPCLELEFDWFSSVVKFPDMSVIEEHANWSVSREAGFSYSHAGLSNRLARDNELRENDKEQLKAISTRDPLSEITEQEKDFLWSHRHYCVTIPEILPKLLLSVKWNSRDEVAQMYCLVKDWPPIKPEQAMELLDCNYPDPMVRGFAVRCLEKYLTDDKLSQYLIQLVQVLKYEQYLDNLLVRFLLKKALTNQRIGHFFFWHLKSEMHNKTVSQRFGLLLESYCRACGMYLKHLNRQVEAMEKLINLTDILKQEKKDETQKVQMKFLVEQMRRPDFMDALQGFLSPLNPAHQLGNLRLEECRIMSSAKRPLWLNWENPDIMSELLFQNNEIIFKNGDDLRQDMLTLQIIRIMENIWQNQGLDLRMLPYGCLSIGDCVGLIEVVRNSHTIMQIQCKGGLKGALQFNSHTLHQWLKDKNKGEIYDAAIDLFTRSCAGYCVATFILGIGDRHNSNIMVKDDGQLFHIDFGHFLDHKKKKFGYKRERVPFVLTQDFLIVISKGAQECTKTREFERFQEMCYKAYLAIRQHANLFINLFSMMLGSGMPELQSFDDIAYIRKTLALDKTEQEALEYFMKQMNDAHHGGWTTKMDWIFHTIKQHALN
T2 sequence (P27986 whole entry partner): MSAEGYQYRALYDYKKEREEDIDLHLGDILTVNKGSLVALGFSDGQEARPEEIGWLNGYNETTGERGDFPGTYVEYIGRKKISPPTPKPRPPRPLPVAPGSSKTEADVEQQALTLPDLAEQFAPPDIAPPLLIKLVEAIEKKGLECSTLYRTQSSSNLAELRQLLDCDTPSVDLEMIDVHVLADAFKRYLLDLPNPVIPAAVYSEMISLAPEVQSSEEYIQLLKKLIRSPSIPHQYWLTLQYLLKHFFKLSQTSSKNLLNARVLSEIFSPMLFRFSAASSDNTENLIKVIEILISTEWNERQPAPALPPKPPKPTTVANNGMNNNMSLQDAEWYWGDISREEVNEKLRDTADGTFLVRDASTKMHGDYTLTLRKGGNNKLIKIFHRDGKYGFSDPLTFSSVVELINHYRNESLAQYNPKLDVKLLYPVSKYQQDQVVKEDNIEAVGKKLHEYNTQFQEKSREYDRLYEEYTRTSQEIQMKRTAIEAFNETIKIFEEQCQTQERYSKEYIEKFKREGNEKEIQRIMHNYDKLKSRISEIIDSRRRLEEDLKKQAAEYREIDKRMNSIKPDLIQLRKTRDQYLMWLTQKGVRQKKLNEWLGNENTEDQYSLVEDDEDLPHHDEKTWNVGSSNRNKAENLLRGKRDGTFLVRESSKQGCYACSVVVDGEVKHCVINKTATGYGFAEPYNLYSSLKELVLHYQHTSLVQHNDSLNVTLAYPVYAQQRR

## COc1ncc(-c2ccn3ncc(C#CCO)c3n2)cc1NS(=O)(=O)c1ccc(F)cc1F [Ex. 1, 2,4-difluoro-N-(5-(3-(3-hydroxyprop-1-yn-1-yl)pyrazolo[1,5-a]pyrimidin-5-yl)-2-methoxypyridin-3-yl)benzenesulfonamide]
[1]
  F: 102.00%
  Cl/F: 2.83 mL/min/kg
  AUC(0-t): 12100 ng·h/mL
  half-life: 3.93 h
  Vd: 0.32 L/kg
mTOR (h)
  IC50: 9 nM

## COc1ncc(-c2ccn3ncc(C#N)c3n2)cc1NS(=O)(=O)c1ccc(F)cc1F [Ex. 2, N-(5-(3-cyanopyrazolo[1,5-a]pyrimidin-5-yl)-2-methoxypyridin-3-yl)-2,4-difluorobenzenesulfonamide]
[1]
  F: 69.48%
  Cl/F: 4.33 mL/min/kg
  AUC(0-t): 7720 ng·h/mL
  half-life: 3.7 h
  Vd: 0.8 L/kg
mTOR (h)
  IC50: 4 nM

## COc1ncc(-c2ccn3ncc(C#N)c3c2)cc1NS(=O)(=O)c1ccc(F)cc1F [Ex. 3, N-(5-(3-cyanopyrazolo[1,5-a]pyridin-5-yl)-2-methoxypyridin-3-yl)-2,4-difluorobenzenesulfonamide]
[2]
  F: 59.8%
  Cl/F: 2.67 mL/min/kg
  AUC(0-t): 5980 ng·h/mL
  half-life: 9.7 h
  Vd: 0.92 L/kg
[3]
  F: 79.3%
  clearance: 0.33 mL/min/kg
  AUC(0-t): 57100 ng·h/mL
  half-life: 5.45 h
  Vd: 0.13 L/kg
[1]
  F: 94.75%
  Cl/F: 4.83 mL/min/kg
  AUC(0-t): 7070 ng·h/mL
  half-life: 2.77 h
  Vd: 0.85 L/kg
[4]
  F: 108.5%
  clearance: 4.5 mL/min/kg
  AUC(0-t): 3670 ng·h/mL
  half-life: 0.67 h
  Vd: 0.23 L/kg
mTOR (h)
  IC50: 4 nM

## COc1ncc(-c2ccn3ncc(C#CCO)c3c2)cc1NS(=O)(=O)c1ccc(F)cc1F [Ex. 4, 2,4-difluoro-N-(5-(3-(3-hydroxyprop-1-yn-1-yl)pyrazolo[1,5-a]pyridin-5-yl)-2-methoxypyridin-3-yl)benzenesulfonamide]
[2]
  F: 24.0%
  Cl/F: 3 mL/min/kg
  AUC(0-t): 5740 ng·h/mL
  half-life: 4.64 h
  Vd: 0.42 L/kg
PI3K p110α/p85α (h)
  IC50: 1 nM
[3]
  F: 70.0%
  clearance: 2.83 mL/min/kg
  AUC(0-t): 5810 ng·h/mL
  half-life: 1.11 h
  Vd: 0.18 L/kg
[1]
  F: 91.75%
  Cl/F: 4.67 mL/min/kg
  AUC(0-t): 7350 ng·h/mL
  half-life: 1.93 h
  Vd: 0.48 L/kg
[4]
  F: 108.5%
  clearance: 1.83 mL/min/kg
  AUC(0-t): 9070 ng·h/mL
  half-life: 6.13 h
  Vd: 0.19 L/kg
mTOR (h)
  IC50: 4 nM
